Measured values: article PMC12670426 (Journal of Medicinal Chemistry, 2025)
Like-named read-outs stand apart in the source and are kept apart here.

Experiments:
[1] = Cytotoxicity assay, Jurkat E6.1; format: cell-based; conditions: human, Jurkat E6.1 cells, viability dye, flow cytometry
Method: (§1) To evaluate in vitro cytotoxicity and support its potential application in inflammatory and fibrotic disease models, the following panel of cell lines, representing the relevant biological systems, was used: HEK293, HepG2, THP1, Jurkat E6.1, and LX2. HEK293, HepG2, and Jurkat E6.1 cells were seeded at 400,000 cells/mL, THP1 cells at 500,000 cells/mL, and LX2 cells at 200,000 cells/mL in 96-well plates (cell culture-treated, VWR) in 100 μL/well. Cells were treated with the tested compounds in a serial dilution (300, 100, 33.3, 11.1, and 3.7 μM) for 24 h. Untreated cells served as negative controls to establish the baseline viability threshold. Cell viability was assessed using a viability dye (Zombie Violet Fixable Viability Kit, BioLegend) following the manufacturer’s instructions and analyzed by flow cytometry (see below).
(§2) Cells or beads from screening assays prepared for flow cytometry were analyzed by the CytoFlex S instrument (Beckman Coulter). Data acquisition was performed using CytExpert software (v2.5, Beckman Coulter). Debris was excluded by forward and side scatter gating, followed by doublet exclusion. Data were analyzed using FlowJo software (v10, BD Biosciences).

[2] = Cytotoxicity assay, panel of five human cell lines; format: cell-based; conditions: HEK293, HepG2, THP-1, Jurkat E6.1 and LX2 cells; summary in text across panel of five human cell lines
Method: as §1, §2

[3] = Plasma stability assay, human plasma; format: in vitro ADME; conditions: pooled plasma, 37 °C
Method: Test compounds (10 μM) were incubated with mouse, rat, or human pooled plasma from 50 donors (Biowest) at 37 °C for 20, 60, and 120 min. Reactions were terminated by adding four volumes of ice-cold methanol, followed by vigorous mixing. Samples were kept at −20 °C for 30 min and then stored at 4 °C overnight. The next day, samples were centrifuged, and supernatants were diluted with four volumes of 30% methanol in water. Zero time points were prepared by adding ice-cold methanol to the compound prior to the addition of plasma. Samples were then analyzed on an Echo MS system (SCIEX) using multiple reaction monitoring (MRM). The only exception was compound 3af, which was analyzed by LC–MS/MS (SCIEX 6500 triple quadrupole) due to its weak ionization in Echo-MS.

[4] = Plasma protein binding assay (rapid equilibrium dialysis), human plasma; format: in vitro ADME; conditions: fraction bound, read-out: plasma protein binding Fb human (converted)
Method: Test compound (10 μM) was incubated at 37 °C for 4 h with mouse, rat, or human plasma (Biowest) in the donor well of a rapid equilibrium dialysis plate (Thermo Fisher Scientific). PBS was placed in the acceptor well. To stop the assay, samples were collected from both wells, and an equal volume of plasma was added to the PBS sample, and vice versa. Proteins were then precipitated by adding three volumes of ice-cold methanol. Samples were mixed gently, kept at −20 °C for 30 min, and then stored at 4 °C overnight. The next day, the samples were centrifuged, and the supernatants were diluted with four volumes of 30% methanol in water. The samples were then analyzed using the Echo-MS system (SCIEX) with MRM transition monitoring, except for compound 3af, which was analyzed by LC–MS/MS as described in the plasma stability assay.

[5] = molecular target: T1, human galectin-3C (Gal-3C, C-terminal CRD of galectin-3) (Homo sapiens, UniProt P17931); experiment: Competitive fluorescence polarization assay, Gal-3C; format: binding
T1 construct: only the C-terminal domain was used (Gal-3C); 6xHis tag with TEV protease site (N, cleaved yes); made in house; host or cells: BL21 Escherichia coli (pET-15b)
Procedure, shortened: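 Competitive fluorescence polarization (anisotropy) with a fluorescent probe; full-length Gal-1 and C-terminal CRD construct of Gal-3. Read after 30–60 min incubation at 25 °C. Kd fitted with Wang's exact cubic competitive model, rmin/rmax fixed from direct binding.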

[6] = Microsomal stability assay, mouse liver microsomes; format: in vitro ADME; conditions: pooled liver microsomes, pH 7.4, mouse liver microsomes 0.5 mg/mL, NADPH
Method: Microsomal stability was determined using 0.5 mg/mL of pooled human, mouse, or rat liver microsomes (Thermo Fisher Scientific) in 90 mM TRIS-Cl buffer (pH 7.4) containing 2 mM NADPH and 2 mM MgCl2. Test compounds (10 μM) were added, and the resulting mixture was incubated at 37 °C for 10, 60, 120, and 180 min. The reactions were terminated by the addition of four volumes of ice-cold methanol, followed by vigorous mixing. The samples were left at −20 °C for 30 min and then stored at 4 °C overnight. The next day, samples were centrifuged, and supernatants were diluted with four volumes of 30% methanol in water. Zero time points were prepared by adding ice-cold methanol to the mixture of compounds and cofactors prior to the addition of microsomes. The samples were then analyzed using the Echo-MS system (SCIEX) with MRM transition monitoring, except for compound 3af, which was analyzed by LC–MS/MS as described in the plasma stability assay.

T1 sequence (P17931 118-248 limits assumed): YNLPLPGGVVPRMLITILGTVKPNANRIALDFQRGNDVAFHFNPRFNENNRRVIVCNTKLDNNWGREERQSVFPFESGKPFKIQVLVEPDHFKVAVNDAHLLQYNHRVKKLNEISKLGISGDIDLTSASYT

SMILES: CC(=O)N(c1cc(C(=O)O)cc2[nH]ccc12)[C@@H]1O[C@H](CO)[C@@H](S[C@@H]2O[C@H](CO)[C@H](O)[C@H](n3cc(-c4cccc(F)c4)nn3)[C@H]2O)[C@H](O)[C@H]1O [Compound 11, N-[4-S-(3-Deoxy-3-(4-(3-fluorophenyl)-1H-1,2,3-triazol-1-yl)-β-D-galactopyranosyl)-4-thio-β-D-glucopyranosyl]-N-(6-carboxy-1H-indol-4-yl)acetamide]
- CC50 at 24 h [1]: > 300000 nM
- CC50 at 24 h [2]: > 300000 nM
- remaining at 2 h, 10 μM [3]: 110 ± 6%
- fraction unbound at 4 h, 10 μM [4]: 0.55
- IC50 ([5]; CSV supplement, unrounded mean, read-out: Gal3C_IC50_mean_uM): 57.7 nM
- Kd ([5]; CSV supplement, unrounded mean, read-out: Gal3C_Kd_mean_uM): 5.71 nM
- Kd ([5]; competitive fluorescence polarization, mean ± SD, read-out: Kd Gal-3C): 5.7 ± 2 nM
- IC50 ([5]; four-parameter logistic model, mean ± SD, read-out: IC50 Gal-3C): 58 ± 10 nM
- microsomal CLint at 10 μM [6]: < 2 µL/min/mg
